We go through five compounds from paper PMC6706398 (Scientific Reports, 2019).

In experiment [1] the target is wild-type CT holotoxin (cCT) (Vibrio cholerae, UniProt Q57193). The experiment is described as follows: biochemical. The experiment is classed as binding.
Experiment [2] addresses CT. Particulars: cited from earlier work.
Experiment [3] has as its system CTB binding to jejunal epithelial cells. Particulars: cited from earlier work.
Experiment [4] concerns CTB binding in cell culture (intestinal epithelial cells). The settings on record: cited from earlier work.
The subject of experiment [5] is CT. Particulars: cited from earlier work. The source holds these as a separate data set.

Where “and” joins values, the source holds several entries; their conditions need not be identical. Identical values can stand only once. Like-named read-outs stand apart in the source and are kept apart here.

For the compound `CC(=O)N[C@H]1[C@H](O[C@@H]2[C@H](O[C@]3(C(=O)O)C[C@H](O)[C@@H](NC(C)=O)[C@H]([C@H](O)[C@H](O)CO)O3)[C@@H](O)[C@H](O[C@H]3[C@H](O)[C@@H](O)[C@H](O)O[C@@H]3CO)O[C@@H]2CO)O[C@H](CO)[C@H](O)[C@@H]1O[C@@H]1O[C@H](CO)[C@H](O)[C@H](O)[C@H]1O[C@@H]1O[C@@H](C)[C@@H](O)[C@@H](O)[C@@H]1O` [GM1os], the values for the dissociation constant Kd (in experiment [1]; on CT [2]) were 5.77e-05 ± 3e-07 mM and 43 nM, respectively.
Consider `CC(=O)N[C@@H]1[C@@H](O[C@@H]2O[C@@H](C)[C@@H](O)[C@@H](O)[C@@H]2O)[C@H](O[C@@H]2O[C@H](CO)[C@H](O)[C@H](O)[C@H]2O)[C@@H](CO)O[C@H]1O` [Le^x triaose], for which the Kd in experiment [1] (Kd) is 8.1 mM and 8 mM. The “blocking of CTB binding to jejunal epithelial cells” value in experiment [3] is given as “can be blocked”.
`C[C@H](O)[C@@H](O)[C@@H](O)[C@H](O)C=O` [L-fucose]: the “blocking of CTB binding in cell culture” value in experiment [4] was “block CTB binding”.
Turning to `CC(=O)N[C@H]1[C@H](O[C@@H]2[C@H](O[C@]3(C(=O)O)C[C@H](O)[C@@H](NC(C)=O)[C@H]([C@H](O)[C@H](O)CO)O3)[C@@H](O)[C@H](O[C@H]3[C@H](O)[C@@H](O)[C@H](O)O[C@@H]3CO)O[C@@H]2CO)O[C@H](CO)[C@H](O)[C@@H]1O[C@@H]1O[C@H](CO)[C@H](O)[C@H](O)[C@H]1O[C@@H]1O[C@@H](C)[C@@H](O)[C@@H](O)[C@@H]1O` [Fucosyl-GM1], the “binding to CT relative to GM1” value in the experiment on CT [5] is recorded as “almost as strongly as GM1”.
With `CC(=O)N[C@H]1[C@H](O[C@@H]2[C@@H](O)[C@H](O)O[C@H](CO)[C@@H]2O)O[C@H](CO)[C@@H](O[C@@H]2O[C@H](CO)[C@H](O)[C@H](O)[C@H]2O)[C@@H]1O[C@@H]1O[C@@H](C)[C@@H](O)[C@@H](O)[C@@H]1O` [Le^x tetraose], in experiment [1] (Kd), the Kd turned out to be 7.7 ± 0.5 mM.
